The values below come from publication PMC3164168 (PLoS ONE, 2011).

In data set [1] the test system is HCT116 (colorectal carcinoma). Briefly: MTT cancer cell growth assay, HCT116. The note with it: for CC50: read-out: CC50 HCT116. Format: cell-based, human. On the procedure:
(§1) HeLa (Human Cervical Adenocarcinoma), HCT116 (Human Colorectal Carcinoma) and 1205Lu (Human Melanoma) cells (all from ATCC) were maintained in DMEM containing 10% fetal bovine serum. 12–16 hours prior to drug treatment, 3×10^3 to 5×10^3 cells were seeded on each well of 96-well tissue culture plates. Drugs were diluted in DMEM containing 10% fetal bovine serum and applied to the cells. 72 hours after drug treatment, 20 µl of MTT solution (5 mg/ml in PBS) was added into each well, followed by shaking the plates at 150 rpm for 5 minutes and an incubation of 4 hours (37°C, 5% CO2). Media was removed, plates dried and each well was resuspended in 100 µl MTT formazan/DMSO. The absorbance of each well was recorded at 560 nm on GloMax®-Multi+ Detection System (Promega).

The subject of a further data set is HFF. Briefly: CellTiter-Glo Luminescent Cell Viability assay in HFF. Format: cell-based. On the procedure: (§2) Human Foreskin Fibroblasts (HFF) passage 12–16 (ATCC, CRL-2088™) were grown in Dulbecco's Modified Eagle Medium (DMEM) containing 10% fetal bovine serum (Gibco, Carlsbad, CA) in a 5% CO2 incubator at 37°C and used for infections with pp28-luciferase Towne CMV or the GCV-resistant strain. One day prior to infection with the pp28-luciferase, 4×10^4 HFF cells were seeded on each well of 24-well tissue culture plates. Infection was carried out at multiplicity of infection of 1 PFU/cell (MOI = 1). Following 90 minute adsorption, media containing virus was removed and replaced by DMEM with 4% fetal bovine serum (Gibco, Carlsbad, CA) containing anti-viral compounds. The concentration of each compound was calculated and adjusted by volume such that it was constant throughout the experiment.
(§3) Infected and treated HFF cells were collected 72 hpi and washed once with PBS. The lysates were assayed for luciferase and cell viability using a Luciferase Assay Kit (Promega, Madison, WI) and CellTiter-Glo Luminescent Cell Viability Assay Kit, respectively, on GloMax®-Multi+ Detection System (Promega) according to manufacturer's instructions.
For orientation: In ATP-based viability assays light output follows the ATP content of the culture.

Data set [2] deals with HeLa (cervical adenocarcinoma). Briefly: MTT cancer cell growth assay, HeLa. The class given is cell-based, human. The note with it: for CC50: read-out: CC50 HeLa. On the procedure:
as §1

The next data set deals with 1205Lu (melanoma). Briefly: MTT cancer cell growth assay, 1205Lu. The class given is cell-based, human. The following applies: for CC50: read-out: CC50 1205Lu. The method, then: as §1
Data set [3] can be described thus: CellTiter-Glo Luminescent Cell Viability assay in HFF. The note with it: human. Format: cell-based. On the procedure: as §2, §3
Data set [4] has as its system GCV-resistant CMV strain (UL97 mutation H520Q). The data set is described as follows: Plaque reduction assay, GCV-resistant CMV strain. Format: cell-based, human cytomegalovirus. The following applies: for inhibition of plaque formation, GCV-resistant CMV strain: 0.1 µM, plaques counted 21 days after infection. From the text: The pp28-luciferase Towne strain was constructed as previously described. Briefly, the recombinant virus, which expresses luciferase under the control of UL99 (pp28) late promoter was generated by insertion of the reporter gene between the US9 and US10 open reading frames (ORFs) in the Towne genome. […] We have recently reported that the pp28-luciferase reporter system is sensitive, reproducible and highly correlates with plaque reduction. The ganciclovir (GCV)-resistant strain was obtained from a patient with CMV disease. […] This clinical isolate was provided by the clinical virology laboratory with no identifiers that can link to a specific subject. The Johns Hopkins Office of Human Subject Research Institutional Review Board determined that this research qualified for an exemption.
Human lung fibroblasts (HEL) passage 8–12 (ATCC, CCL-137™) were grown in DMEM containing 10% fetal bovine serum. One day prior to infection, 3×10^5 cells were seeded on each well of 12-well tissue culture plates. GCV-resistant CMV was diluted in DMEM to a desired concentration which gave around 100 plaques per well and added to each well in duplicates. Plates were incubated for 90 minutes with shaking every 10 min; thereafter drugs were added and a methylcellulose overlay applied to each well. After incubation for 21 days, cells were stained with crystal violet and plaques were counted under microscope at 40× magnification.

Data set [5] has as its system pp28-luciferase Towne CMV. Briefly: microbe, parasite or virus in culture. Format: cell-based, human cytomegalovirus. The following applies: for inhibition of late pp28 gene expression (luciferase activity): 72 hpi; for difference in SI versus parent alcohol: 838 vs 606, 832-4 vs 760; for EC50: Human betaherpesvirus 5; for SI (selectivity index, ratio of CC50 to EC50): CC50 in HFF / anti-CMV EC50.
Source text: The pp28-luciferase Towne strain was constructed as previously described. Briefly, the recombinant virus, which expresses luciferase under the control of UL99 (pp28) late promoter was generated by insertion of the reporter gene between the US9 and US10 open reading frames (ORFs) in the Towne genome. […] The ganciclovir (GCV)-resistant strain was obtained from a patient with CMV disease. […] This clinical isolate was provided by the clinical virology laboratory with no identifiers that can link to a specific subject. The Johns Hopkins Office of Human Subject Research Institutional Review Board determined that this research qualified for an exemption.
as §2, §3

The mark [6] stands for this setting: HFF, 72 h, measured at 1 µM to 100 µM, read-out: CC50.
The mark [7] stands for this setting: Homo sapiens, HCT-116, MTT 72 hr after treatment.
Where [8] appears, read: Homo sapiens, HeLa, MTT 72 hr after treatment.
The mark [9] stands for this setting: Homo sapiens, 1205Lu, MTT 72 hr after treatment.

Each structure is given as a SMILES string. Entries after “also recorded” stand apart in the source; their conditions may differ. Read-outs that look alike come from different tables or passages of the source.

Consider `C[C@H]1[C@@H](CCC(=O)Nc2ccc(F)cc2)O[C@@H]2OC3(C)CC[C@H]4[C@H](C)CC[C@@H]1[C@@]24OO3` [Artefanilide], for which the half-maximal cytotoxic concentration (CC50) was 40 ± 7.9 µM in data set [1] (MTT 72 hr after treatment), 44.9 ± 3.4 µM in the data set on HFF, more than 50 µM in data set [2] (MTT 72 hr after treatment) and more than 50 µM in the data set on 1205Lu (melanoma) (MTT 72 hr after treatment).

Take `CC1CCC2C(C)C(CC(COP(=O)(Oc3ccccc3)Oc3ccccc3)CC3OC4OC5(C)CCC6C(C)CCC(C3C)C46OO5)OC3OC4(C)CCC1C32OO4` (centres unmarked) [compound 838, Dimer isobu-OP(O)(OPh)2]: the “potency in inhibiting growth versus artesunate, HCT116” value in data set [1] was “at least 200 fold”. Moreover, in data set [1] (Homo sapiens, HCT-116, 72 h), the half-maximal cytotoxic concentration (CC50) came out at 0.04 ± 0.005 µM. The CC50 at 72 h in data set [3] (setting [6]) is 55.8 ± 2.8 µM. Also, in the data set on HFF (HFF), the “cellular toxicities at concentrations of complete CMV inhibition” value is “not observed”. In data set [2], the “potency in inhibiting growth versus artesunate, HeLa” value turned out to be 37 fold. In data set [2] (Homo sapiens, HeLa, 72 h), the CC50 was 0.19 ± 0.08 µM. For the same molecule, the “inhibition of plaque formation, GCV-resistant CMV strain” value in data set [4] is “fully inhibited; also recorded: highly active”. In addition, the “potency in inhibiting growth versus artesunate, 1205Lu” value in the data set on 1205Lu (melanoma) is on record as “at least 200 fold”. For the same molecule, the CC50 in the data set with 1205Lu (melanoma) (Homo sapiens, 1205Lu, 72 h) is 0.06 ± 0.002 µM. Also, in data set [5], the SI versus artesunate was determined as 134 fold, the “anti-CMV potency versus artesunate (using EC50 values)” value worked out at 165 fold, the “difference in SI versus parent alcohol” value was found to be 5 fold and the EC50 was 0.04 ± 0.003 µM. Moreover, the “inhibition of late pp28 gene expression (luciferase activity)” value (from here on “inhibition of late pp28 gene expression”) in data set [5] (0.1 µM) is on record as “highly inhibitory”.

On to `CC1CCC2C(C)C(CC(CSc3cccc(COC(=O)N(C)C)c3)CC3OC4OC5(C)CCC6C(C)CCC(C3C)C46OO5)OC3OC4(C)CCC1C32OO4` (centres unmarked) [800-3, Dimer isobu-SPh-3-CH2OC(O)NMe2], for which the “inhibition of late pp28 gene expression” value in data set [5] (0.1 µM) was “not active”; in data set [5] (0.3 µM), “active”.

For the molecule `C[C@H]1[C@H](OC(=O)CCC(=O)O)O[C@@H]2O[C@@]3(C)CC[C@H]4[C@H](C)CC[C@@H]1[C@@]24OO3` [artesunate, Artesunate, reference compound], the CC50 in data set [1] (setting [7]) amounted to 11.3 ± 0.6 µM; in data set [2] (setting [8]), 7.1 ± 0.4 µM; in the data set on 1205Lu (melanoma) (setting [9]), 42 ± 2.4 µM. The CC50 at 72 h in data set [3] (setting [6]) amounted to 71.7 ± 4 µM. Besides, the “SI (selectivity index, ratio of CC50 to EC50)” value in data set [5] came to 11±0.9. In addition, the EC50 in data set [5] was determined as 6.6 ± 0.4 µM.

As for `CC1CCC2C(C)C(CC(CC3OC4OC5(C)CCC6C(C)CCC(C3C)C46OO5)CS(=O)(=O)c3cccc(COC(=O)N(C)C)c3)OC3OC4(C)CCC1C32OO4` (centres unmarked) [832-3, Dimer isobu-SO2Ph-3-CH2OC(O)NMe2], the “inhibition of late pp28 gene expression” value is listed as “not active” in data set [5] (0.1 µM) and “active” in data set [5] (0.3 µM).

Regarding `CC1CCC2C(C)C(CC(CSc3ccc(COC(=O)N(C)C)cc3)CC3OC4OC5(C)CCC6C(C)CCC(C3C)C46OO5)OC3OC4(C)CCC1C32OO4` (centres unmarked) [800-4, Dimer isobu-SPh-4-CH2OC(O)NMe2], the figures for the “inhibition of late pp28 gene expression” value in data set [5] (0.1 µM) and in data set [5] (0.3 µM) were “not active” and “active”, respectively.

Regarding `CC1CCC2C(C)C(CCCS(=O)(=O)c3ccc(COC(=O)N(C)C)cc3)OC3OC4(C)CCC1C32OO4` (centres unmarked) [compound 551, Art-PrSO2Ph-4-CH2OC(O)NMe2], the “inhibition of late pp28 gene expression” value in data set [5] (1 µM) was “did not”.

Turning to `CC1CCC2C(C)C(CC(CC3OC4OC5(C)CCC6C(C)CCC(C3C)C46OO5)CS(=O)(=O)c3ccc(CO)cc3)OC3OC4(C)CCC1C32OO4` (centres unmarked) [compound 760, Dimer isobu-SO2Ph-4-CH2OH], the CC50 in data set [1] (setting [7]) stood at 0.07 ± 0.005 µM; in data set [2] (setting [8]) it was 0.56 ± 0.18 µM; with 1205Lu (melanoma) (setting [9]), 0.1 ± 0.006 µM. Further, it took 4.9 ± 0.2 µM to reach half-maximal cytotoxicity in data set [3] (CC50 at 72 h). Besides, the “SI (selectivity index, ratio of CC50 to EC50)” value in data set [5] is recorded as 34.5±2. Also, in data set [5], the EC50 amounted to 0.14 ± 0.008 µM.

Regarding `CC1CCC2C(C)C(CC(CC3OC4OC5(C)CCC6C(C)CCC(C3C)C46OO5)CS(=O)(=O)c3ccc(COC(=O)N(C)C)cc3)OC3OC4(C)CCC1C32OO4` (centres unmarked) [832-4, Dimer isobu-SO2Ph-4-CH2OC(O)NMe2], the cytotoxic concentration (CC50) in data set [1] (setting [7]) worked out at 0.07 ± 0.006 µM. The same molecule had a CC50 at 72 h in data set [3] of 57.5 ± 2.9 µM. Also, the “cellular toxicities at concentrations of complete CMV inhibition” value in the data set on HFF is on record as “not observed”. Also, the CC50 in data set [2] (setting [8]) amounted to 0.27 ± 0.03 µM. For the same molecule, the “inhibition of plaque formation, GCV-resistant CMV strain” value in data set [4] is “fully inhibited”. The CC50 with 1205Lu (melanoma) (setting [9]) worked out at 0.13 ± 0.007 µM. For the same molecule, in data set [5], the “effectiveness in CMV inhibition versus monomer 551” value is “at least 150 fold”; the “difference in SI versus parent alcohol” value was 30 fold; the midpoint of the response, the EC50, lay at 0.07 ± 0.004 µM. For the same molecule, in data set [5] (0.1 µM), the “inhibition of late pp28 gene expression” value was “highly inhibitory”.

For the molecule `Nc1nc(O)c2ncn(COC(CO)CO)c2n1` [GCV, Ganciclovir, reference compound], the CC50 (in data set [1] (setting [7]); in data set [2] (setting [8]); in the data set on 1205Lu (melanoma) (setting [9])) was more than 50 µM throughout. Moreover, in data set [3] (setting [6]), the 50% cytotoxic concentration (CC50) at 72 h amounted to 247 ± 33.4 µM. The “plaque formation, GCV-resistant CMV strain” value in data set [4] (GCV at 5 µM, 21 days) is “obvious resistance”. The EC50 in data set [4] (Human betaherpesvirus 5, read-out: EC50 of GCV for the GCV-resistant strain) turned out to be 7.6 µM; in data set [5], 2.7 ± 0.1 µM. For the same molecule, the “inhibition of late pp28 gene expression” value in data set [5] (0.1 µM) is listed as “no inhibition at all”. The “SI (selectivity index, ratio of CC50 to EC50)” value in data set [5] was found to be 96±14.

`CC1CCC2C(C)C(CC(CO)CC3OC4OC5(C)CCC6C(C)CCC(C3C)C46OO5)OC3OC4(C)CCC1C32OO4` (centres unmarked) [compound 606, Dimer isobu-OH]: the 50% cytotoxic concentration (CC50) amounted to 0.1 ± 0.001 µM in data set [1] (setting [7]), 1.06 ± 0.2 µM in data set [2] (setting [8]) and 4.9 ± 0.04 µM in the data set on 1205Lu (melanoma) (setting [9]). Besides, the CC50 at 72 h in data set [3] is 48.1 ± 2.6 µM. The “SI (selectivity index, ratio of CC50 to EC50)” value in data set [5] came to 292±21. The same molecule yielded a half-maximal effective concentration (EC50) in data set [5] of 0.16 ± 0.008 µM.

For orientation: CC50 means the concentration at which the toxic effect on the cells reaches its halfway point. As a reminder, the EC50 is the concentration that produces a half-maximal response.
